The values below come from patent publication EP4635969A1, “NOVEL GLUCOCORTICOID, METHOD FOR PREPARING SAME, AND USE THEREOF” (Tianjin Pharmaceutical Biotechnology Co., Ltd., priority 2022, dated 2024).

One data set has as its system IL-17. Nature of the data set: Psoriasis experiment (imiquimod model): inflammatory cytokine in serum (ELISA). The data set is classed as in vivo, mice. The conditions noted are these: compared with the model group. For orientation: In an ELISA, binding on a coated surface is turned into a signal by an enzyme label.
Data set [1] in a line: Pharmacokinetic (PK) experiment in rats. The data set is classed as in vivo, male SD rats. The note with it: same experimental conditions. As to the method: Pharmacological Example 11. Pharmacokinetic (PK) Experiment in Rats
The solution was prepared before administration.
Animals: 6 male SD rats, SPF grade (Beijing Vital River Laboratory Animal Technology Co., Ltd.).
Animal grouping: The animals were weighed prior to administration, and the dosage was calculated based on body weight. The animals in the oral administration group were fasted overnight (10-14 hours) before administration, and food was reintroduced 4 hours post-administration. Table 23. Animal grouping and drug administration dosages for pharmacokinetic (PK) experiment in rats
Blood collection time points: Blood was collected from the jugular vein at 2 min, 5 min, 15 min, 30 min, 1 h, 2 h, 4 h, 8 h, and 24 h after administration. Approximately 0.25 mL of blood was collected for each sample, anticoagulated with heparin sodium, and then placed on ice immediately.
Plasma sample processing: Blood samples were placed on ice after collection and centrifuged to separate plasma within 1 hour (centrifugation conditions: 6000 rpm, 3 minutes, 2-8 °C ). Plasma samples were stored in a -80°C freezer before analysis.
Data processing: Pharmacokinetic parameters were calculated using Phoenix WinNonlin 8.2.0 based on the plasma drug concentration data at different time points.

For a further data set, the system named is epidermal layer in rats. Put plainly: Adverse reactions of continuous dermal administration: thickness of the epidermal layer (H&E sections). The data set is classed as in vivo, SD rats. The conditions noted are these: compared with the blank control group. The source says: Pharmacological Example 10: Experiment on Adverse Reactions of Continuous Dermal Administration in Rats
Animals: SD rats, SPF grade, with an equal number of males and females, weighing 230-250 g.
Animal grouping: After adaptive feeding, the rats were randomly divided into 4 groups. […] One day before administration, the backs of rats were shaved at an area of 5 cm × 6 cm. […] The rats in the blank control group were applied with the blank matrix of corresponding mass on their backs, twice a day for a consecutive week. Table 21. Animal grouping and drug administration dosages for the experiment on adverse reactions of continuous dermal administration in rats
To examine the effects of continuous administration of the test samples on the epidermal layer, the back skin tissues were stained with hematoxylin and eosin (H&E) (magnification ×40), and the thickness of the epidermal layer was quantitatively measured based on the H&E-stained sections.

A further data set relates to psoriasis model mice. Nature of the data set: Psoriasis experiment (imiquimod model): skin lesion (PASI) score. It counts as in vivo. The conditions noted are these: compared with the model group.
Data set [2] can be described thus: Stability in animal lung tissue homogenate, skin tissue homogenate and aqueous humor. The data set is classed as in vitro ADME.

Method for psoriasis model mice: Positive control drug: Fluticasone Propionate Cream (specification: 0.05% × 15 g, Zhejiang Xianju Pharmaceutical Co. Ltd., Lot No. 211106), stored at room temperature protected from light until use.
Adult mice were selected, and the skin of 2 cm × 3 cm on the back of mice was locally depilated. The mice in the model group and drug administration group were applied with 62.5 mg of 5% imiquimod cream on their back for modeling, while the mice in the blank control group were applied with medical petroleum jelly on their back daily. The above procedures were performed once a day for 7 consecutive days.
The mice in the drug administration group were applied with the corresponding drugs on their backs daily at a dose of 0.2 g per mouse, while the blank control group and the model group were only applied with 0.2 g of the test sample drug matrix. One hour after drug administration, the drugs were wiped off with sterile cotton swabs, followed by the application of imiquimod. The above procedures were performed once a day for 7 consecutive days.
Referring to the clinical Psoriasis Area and Severity Index (PASI) scoring criteria, erythema, scaling, and thickness at the skin lesion sites were evaluated on a 0-4 scale on day 8 of modeling, and the total score was obtained by summing the three items.
• (1) Erythema: a score of 0 points indicates no erythema, a score of 1 point indicates erythema appearing light red, a score of 2 points indicates erythema appearing red, a score of 3 points indicates erythema appearing dark red, and a score of 4 points indicates erythema appearing extremely deep red; • (2) Scaling: a score of 0 points indicates no scaling on the surface, a score of 1 point indicates partial skin lesions covered with scaling, a score of 2 points indicates most skin lesions covered with scaling, a score of 3 points indicates almost all skin lesions covered with scaling in layers, and a score of 4 points indicates all skin lesions covered with scaling; • (3) Thickness: a score of 0 points indicates skin lesions flush with normal skin, a score of 1 point indicates skin lesions slightly elevated above normal skin surface, a score of 2 points indicates moderate elevation of skin lesions, a score of 3 points indicates thickened skin lesions with obvious elevation, and a score of 4 points indicates highly thickened skin lesions with prominent elevation.
Statistical analysis was performed using SPSS software, and the results were expressed as mean ± standard deviation. One-way ANOVA was used for intergroup comparisons. For data with homogeneous variance, the LSD test was used; for data with heterogeneous variance, the Dunnett-t test was used. A value of P < 0.05 was considered statistically significant.

Turning to `C[C@]12C=CC(=O)C=C1CC[C@H]1[C@@H]3C[C@H]4OC(c5ccc(CSC6COC(=O)C6)cc5Cl)O[C@@]4(C(=O)CO)[C@@]3(C)C[C@H](O)[C@@]12F` (stereo partly drawn) [Compound 20, (6aS,6bR,7S,8aS,8bS,11aR,12aS,12bS)-10-(2-Chloro-4-(((5-oxotetrahydrofuran-3-yl)thio)methyl)phenyl)-6b-fluoro-7-hydroxy-8b-(2-hydroxyacetyl)-6a,8a-dimethyl-1,2,6a,6b,7,8,8a,8b,11a,12,12a, 12b-dodecahydro-4H-naphtho[2',1':4,5]indeno[1,2-d][1,3]dioxol-4-one], the “level of IL-17 / inflammatory cytokines in psoriasis model mice” value (from here on “level of IL-17 / inflammatory cytokines”) in the data set on IL-17 is on record as “significantly inhibited inflammatory cytokines in the skin of psoriasis model mice”. Besides, the “pharmacokinetic properties (plasma clearance rate, systemic exposure)” value (“pharmacokinetic properties” below) in data set [1] is “pharmacokinetic properties similar to those of compound 8”. For the same molecule, the “thickness of the epidermal layer after continuous dermal administration” value (“thickness of the epidermal layer” below) in the data set on epidermal layer in rats was “no significant changes in the thickness of the epidermal layer observed”. Moreover, the PASI scores result with psoriasis model mice is “significantly decreased PASI scores on day 7”. The “stability in animal lung tissue homogenate, skin tissue homogenate, and aqueous humor” value (from here on “stability”) in data set [2] was “relatively stable”.

On to `C[C@]12C=CC(=O)C=C1[C@@H](F)C[C@H]1[C@@H]3C[C@H]4OC(c5ccc(CSC6CCOC6=O)cc5)O[C@@]4(C(=O)OCC#N)[C@@]3(C)C[C@H](O)[C@@]12F` (stereo partly drawn) [Compound 37, Cyanomethyl (2S,6aS,6bR,7S,8aS,8bS,11aR,12aS,12bS)-2,6b-difluoro-7-hydroxy-6a,8a-dimethyl-4-oxo-10-(4-( ((2-oxotetrahydrofuran-3-yl)thio)methyl)phenyl)-1,2,4,6a,6b,7,8,8a,11a,12,12a,12b-dodecahydro-8bH-naphtho[2',1':4,5]indeno[1,2-d][1,3]dioxole-8b-carboxylate], for which, in the data set on IL-17, the “level of IL-17 / inflammatory cytokines” value is given as “significantly inhibited inflammatory cytokines in the skin of psoriasis model mice”. The “pharmacokinetic properties” value in data set [1] is listed as “pharmacokinetic properties similar to those of compound 8”. In the data set with epidermal layer in rats, the “thickness of the epidermal layer” value was “no significant changes in the thickness of the epidermal layer observed”. Further, in the data set on psoriasis model mice, the PASI scores entry is “significantly decreased PASI scores on day 7”. In addition, in data set [2], the “stability” value was “relatively stable”.

Take `C[C@]12C=CC(=O)C=C1CC[C@H]1[C@@H]3C[C@H]4OC(c5ccc(CSC6CCOC6=O)cn5)O[C@@]4(C(=O)CO)[C@@]3(C)C[C@H](O)[C@@]12Cl` (stereo partly drawn) [Compound 51, (6aS,6bR,7S,8aS,8bS,11aR,12aS,12bS)-6b-Chloro-7-hydroxy-8b-(2-hydroxyacetyl)-6a,8a-dimethyl-10-(5-(((2-oxotetrahydrofuran-3-yl)thio)methyl)pyridin-2-yl)-1,2,6a,6b,7,8,8a,8b,11a,12,12a,12 b-dodecahydro-4H-naphtho[2',1':4,5]indeno[1,2-d][1,3]dioxol-4-one]: the “level of IL-17 / inflammatory cytokines” value in the data set on IL-17 is on record as “significantly inhibited inflammatory cytokines in the skin of psoriasis model mice”. The “pharmacokinetic properties” value in data set [1] is given as “pharmacokinetic properties similar to those of compound 8”. The “thickness of the epidermal layer” value in the data set with epidermal layer in rats was “no significant changes in the thickness of the epidermal layer observed”. Besides, the PASI scores entry with psoriasis model mice is given as “significantly decreased PASI scores on day 7”. Moreover, the “stability” value in data set [2] is “relatively stable”.

Consider `C[C@]12C=CC(=O)C=C1CC[C@H]1[C@@H]3C[C@H]4OC(c5ccc(CSC6COC(=O)C6)cc5)O[C@@]4(C(=O)CO)[C@@]3(C)C[C@H](O)[C@@]12Cl` (stereo partly drawn) [Compound 26, (6aS,6bR,7S,8aS,8bS,11aR,12aS,12bS)-6b-Chloro-7-hydroxy-8b-(2-hydroxyacetyl)-6a,8a-dimethyl-10-(4-(((5-oxotetrahydrofuran-3-yl)thio)methyl)phenyl)-1,2,6a,6b,7,8,8a,8b,11a,12,12a,12b-do decahydro-4H-naphtho[2',1':4,5]indeno[1,2-d][1,3]dioxol-4-one], for which the “level of IL-17 / inflammatory cytokines” value with IL-17 is given as “significantly inhibited inflammatory cytokines in the skin of psoriasis model mice”. Moreover, the “pharmacokinetic properties” value in data set [1] was “pharmacokinetic properties similar to those of compound 8”. Moreover, the “thickness of the epidermal layer” value in the data set with epidermal layer in rats is given as “no significant changes in the thickness of the epidermal layer observed”. In addition, in the data set with psoriasis model mice, the PASI scores result is reported as “significantly decreased PASI scores on day 7”. Further, the “stability” value in data set [2] was “relatively stable”.

As for `C[C@]12C=CC(=O)C=C1CC[C@H]1[C@@H]3C[C@H]4OC(c5ccc(CSC6CCOC6=O)nc5)O[C@@]4(C(=O)CO)[C@@]3(C)C[C@H](O)[C@@]12Cl` (stereo partly drawn) [Compound 48, (6aS,6bR,7S,8aS,8bS,11aR,12aS,12bS)-6b-Chloro-7-hydroxy-8b-(2-hydroxyacetyl)-6a,8a-dimethyl-10-(6-(((2-oxotetrahydrofuran-3-yl)thio)methyl)pyridin-3-yl)-1,2,6a,6b,7,8,8a,8b,11a,12,12a,12 b-dodecahydro-4H-naphtho[2',1':4,5]indeno[1,2-d][1,3]dioxol-4-one], the “level of IL-17 / inflammatory cytokines” value in the data set with IL-17 is on record as “significantly inhibited inflammatory cytokines in the skin of psoriasis model mice”. Moreover, the “pharmacokinetic properties” value in data set [1] is “pharmacokinetic properties similar to those of compound 8”. Further, the “thickness of the epidermal layer” value with epidermal layer in rats was “no significant changes in the thickness of the epidermal layer observed”. Moreover, in the data set with psoriasis model mice, the PASI scores entry was “significantly decreased PASI scores on day 7”. Moreover, the “stability” value in data set [2] was “relatively stable”.

As to `C[C@]12C=CC(=O)C=C1CC[C@H]1[C@@H]3C[C@H]4OC(c5ccc(CNC6COC(=O)C6)cc5)O[C@@]4(C(=O)CO)[C@@]3(C)C[C@H](O)[C@@]12F` (stereo partly drawn) [Compound 21, (6aS,6bR,7S,8aS,8bS,11aR,12aS,12bS)-6b-Fluoro-7-hydroxy-8b-(2-hydroxyacetyl)-6a,8a-dimethyl-10-(4-(((5-oxotetrahydrofuran-3-yl)amino)methyl)phenyl)-1,2,6a,6b,7,8,8a,8b,11a,12,12a,12b-dodecahydro-4H-naphtho[2',1':4,5]indeno[1,2-d][1,3]dioxol-4-one], in the data set on IL-17, the “level of IL-17 / inflammatory cytokines” value is on record as “significantly inhibited inflammatory cytokines in the skin of psoriasis model mice”. Besides, the “pharmacokinetic properties” value in data set [1] is given as “pharmacokinetic properties similar to those of compound 8”. Further, the “thickness of the epidermal layer” value in the data set on epidermal layer in rats was “no significant changes in the thickness of the epidermal layer observed”. Also, the PASI scores entry in the data set on psoriasis model mice was “significantly decreased PASI scores on day 7”. Besides, the “stability” value in data set [2] is listed as “relatively stable”.

`C[C@]12C=CC(=O)C=C1[C@@H](F)C[C@H]1[C@@H]3C[C@H]4OC(c5ccc(CSC6CCOC6=O)nc5)O[C@@]4(C(=O)CO)[C@@]3(C)C[C@H](O)[C@@]12F` (stereo partly drawn) [Compound 46, (25,6aS,6bR,78,8a8,8bS,11aR,12a8,12b8S)-2,6b-Difluoro-7-hydroxy-8b-(2-hydroxyacetyl)-6a,8a-dimethyl-10-(6-(((2-oxotetrahydrofuran-3-yl)thio)methyl)pyridin-3-yl)-1,2,6a,6b,7,8,8a,8b,11a,12, 12a,12b-dodecahydro-4H-naphtho[2',1':4,5]indeno[1,2-d][1,3]dioxol-4-one]: the “level of IL-17 / inflammatory cytokines” value in the data set with IL-17 is listed as “significantly inhibited inflammatory cytokines in the skin of psoriasis model mice”. In addition, the “pharmacokinetic properties” value in data set [1] is recorded as “pharmacokinetic properties similar to those of compound 8”. For the same molecule, the “thickness of the epidermal layer” value with epidermal layer in rats was “no significant changes in the thickness of the epidermal layer observed”. For the same molecule, the PASI scores entry in the data set with psoriasis model mice is listed as “significantly decreased PASI scores on day 7”. For the same molecule, the “stability” value in data set [2] is “relatively stable”.
